Measurements reported in patent US20140255518A1, “Treatment and Prevention of Gastrointestinal Syndrome” (THOMAS JEFFERSON UNIVERSITY HOSPITALS, INC., priority 2011, published 2014).
Read-outs that look alike come from different tables or passages of the source. No end group written: not given here.

Columns and labels:
[1] = system: human breast cancer cells; experiment: CPT11-induced cell death after cGMP preconditioning, breast cancer cells; assay type: cell-based; settings: cGMP precondition
Experimental: (§1) Experiments were performed to show the requirement of GCC activation in the protection of small intestine and colon cells from apoptosis and genotoxic induced cell death. The role of activation of GCC and of the presence of p53 was also evaluated. Test on cancer cells were performed to compare the protection by cGMP of colon cancer cells from cell death in compared to cGMP's potentiation of cell death in other cancers.

[2] = system: human prostate cancer cells; experiment: CPT11-induced cell death after cGMP preconditioning, prostate cancer cells; assay type: cell-based; settings: cGMP precondition
Experimental: as §1

[3] = system: human colon cells; experiment: Cell death after irinotecan (CPT11) challenge, human colon cells; assay type: cell-based; settings: irinotecan (CPT11, 100 μM)
Experimental: as §1

[4] = system: HCT116P53−/− cells (P53 null); experiment: IR-induced cell death after cGMP preconditioning, HCT116 P53 null; assay type: cell-based, human; settings: HCT116P53−/− cells (P53 null) preconditioned with cGMP; FIG. 3 (B)
Experimental: as §1

[5] = system: human liver cancer cells; experiment: CPT11-induced cell death after cGMP preconditioning, liver cancer cells; assay type: cell-based; settings: cGMP precondition
Experimental: as §1

[6] = system: HCT116 cells; experiment: CPT11-induced cell death after cGMP preconditioning, HCT116 cells; assay type: cell-based, human; settings: HCT116 cells preconditioned with cGMP
Experimental: as §1

[7] = system: HCT116 cells (P53 wildtype); experiment: IR-induced cell death after cGMP preconditioning, HCT116 (P53 wildtype); assay type: cell-based, human; settings: HCT116 cells (P53 wildtype) preconditioned with cGMP; FIG. 3 (A)
Experimental: as §1

[8] = system: irradiated intestinal tissue; settings: cited from earlier work
[9] = molecular target: ST receptors / guanylate cyclase (Homo sapiens, UniProt P25092); settings: compared with native ST; cited from earlier work
Chain of ST receptors / guanylate cyclase (P25092 24-1073): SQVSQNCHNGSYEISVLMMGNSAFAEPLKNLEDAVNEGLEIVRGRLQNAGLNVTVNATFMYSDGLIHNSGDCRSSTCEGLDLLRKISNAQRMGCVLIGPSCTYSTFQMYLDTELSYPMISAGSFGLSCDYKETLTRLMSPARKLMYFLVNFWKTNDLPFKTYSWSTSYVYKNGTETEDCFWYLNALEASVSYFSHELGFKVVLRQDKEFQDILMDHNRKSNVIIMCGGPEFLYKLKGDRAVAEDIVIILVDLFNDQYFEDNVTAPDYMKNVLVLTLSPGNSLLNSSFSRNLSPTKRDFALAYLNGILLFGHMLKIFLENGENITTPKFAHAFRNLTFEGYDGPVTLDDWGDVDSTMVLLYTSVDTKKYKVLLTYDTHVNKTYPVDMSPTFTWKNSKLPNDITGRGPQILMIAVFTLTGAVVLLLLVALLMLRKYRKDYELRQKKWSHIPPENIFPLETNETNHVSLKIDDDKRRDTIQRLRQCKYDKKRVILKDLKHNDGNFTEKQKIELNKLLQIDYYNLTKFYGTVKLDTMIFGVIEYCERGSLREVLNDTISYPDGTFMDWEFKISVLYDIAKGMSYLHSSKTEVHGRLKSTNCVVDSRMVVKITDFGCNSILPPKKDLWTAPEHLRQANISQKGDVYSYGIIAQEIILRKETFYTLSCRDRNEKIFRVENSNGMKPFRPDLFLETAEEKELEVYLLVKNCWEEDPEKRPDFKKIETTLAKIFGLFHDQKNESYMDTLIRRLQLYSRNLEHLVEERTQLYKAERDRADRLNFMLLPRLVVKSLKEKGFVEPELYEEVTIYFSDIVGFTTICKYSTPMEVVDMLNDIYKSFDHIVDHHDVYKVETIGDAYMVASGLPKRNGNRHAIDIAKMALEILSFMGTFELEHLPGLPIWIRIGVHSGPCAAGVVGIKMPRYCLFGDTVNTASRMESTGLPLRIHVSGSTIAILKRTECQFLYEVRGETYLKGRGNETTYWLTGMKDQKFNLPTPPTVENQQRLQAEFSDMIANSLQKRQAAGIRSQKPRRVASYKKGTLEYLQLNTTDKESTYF

Nc1nc2c(ncn2[C@@H]2O[C@@H]3COP(=O)(O)O[C@H]3[C@H]2O)c(=O)[nH]1 [cGMP, cyclic GMP]
cell death induced by CPT11 [1]: promoted cell death
cell death induced by CPT11 [2]: promoted cell death
cell death in response to irinotecan challenge [3]: protected cell death
protection from IR-induced cell death [4]: protection by cGMP preconditioning did not occur
cell death induced by CPT11 [5]: promoted cell death
CPT11-induced cell death [6]: resisted CPT11-induced cell death
P53 dependence of protection from CPT11-induced cell death [6]: protection was P53 dependent
IR-induced cell death [7]: resisted IR-induced cell death
level of apoptosis in irradiated intestinal tissue ([8]; mice lacking genes encoding GCC or uroguanylin, cGMP supplementation (cGMP analog injected)): ameriolated the level of apoptosis
level of apoptosis in irradiated intestinal tissue ([8]; wild type mice, cGMP supplementation): not in wild type mice

Guanylin: 15 amino acid peptide from mammalian intestine, about 50% sequence homology to ST; native GCC agonist (SEQ ID NO:6, 54) (PGTCEICAYAACTGC; ends and bridges not checked; cysteine pairing not given here; UniProt Q02747 101-115, looked up)
binding to ST receptors and activation of guanylate cyclase, level relative to native ST [9]: 10- to 100 fold less than native ST
